These results are taken from US10550142B2, “Quercetin-based compound” (AMOREPACIFIC CORPORATION, priority 2016, dated 2020).

In the assay the target is T1, β-amyloid (Aβ1-42) (Homo sapiens, UniProt P05067).
T1 construct: β-amyloid (Aβ1-42, AnaSpec Inc, USA) was obtained; purchased AnaSpec Inc, USA
The experiment in a line: Beta-amyloid aggregation inhibition, fluorescence analysis (Thioflavin T assay). It counts as biochemical. As to conditions: compound 10 μM; for Increased RFU (amount of aggregated β-amyloid): Aβ1-42 0.1 mg/ml, 37° C., 150 minutes; for Increased RFU (% of Pos.Cont.): aggregated β-amyloid compared to the positive control (no compound) = 100; for decreased aggregation compared with the positive control: positive control taken as 100%. How it is done: The beta-amyloid aggregation inhibitory effect of quercetin 3-O-[3-O″-(E)-p-coumaroyl][β-D-glucopyranosyl-(1→3)-O-α-L-rhamnopyranosyl-(1→6)-O-β-D-glucopyranoside] and quercetin 3-O-[3-O″-(E)-p-coumaroyl][α-L-rhamnopyranosyl-(1→6)-O-β-D-glucopyranoside] was determined by fluorescence analysis (Thioflavin T assay). Specifically, β-amyloid (Aβ1-42, AnaSpec Inc, USA) was obtained and used at a concentration of 0.1 mg/ml. It was stored at −80° C. prior to use. Each of morin (20 μM), phenol red (20 μM), quercetin 3-O-[3-O″-(E)-p-coumaroyl][β-D-glucopyranosyl-(1→3)-O-α-L-rhamnopyranosyl-(1→6)-O-β-D-glucopyranoside] (1 mg/ml), and quercetin 3-O-[3-O″-(E)-p-coumaroyl][α-L-rhamnopyranosyl-(1→6)-O-β-D-glucopyranoside] (1 mg/ml) was diluted to these concentrations in DMSO. In order to determine the degree of inhibition of Aβ1-42 aggregation, each compound at the above concentration was diluted to 10 μM in 50 μL of 0.01 M sodium phosphate buffer solution. Then, 40 μL of 0.1 mg/ml Aβ1-42 was added thereto, followed by addition of 10 μL of 2 mM Thioflavin T. The fluorescence was then measured with a fluorescence spectrometer (RF-5300PC, SHIMADZU CORPORATION, Japan) at 37° C. and intervals of 5 minutes for 150 minutes. In the table above, “RFU” denotes relative fluorescence unit, and “increased RFU” indicates the amount of aggregated β-amyloid. “Increased RFU (% of Pos.Cont.)” indicates the percentage of aggregated β-amyloid compared to the positive control. “Novel substance 31” indicates quercetin 3-O-[3-O″-(E)-p-coumaroyl][β-D-glucopyranosyl-(1→3)-O-α-L-rhamnopyranosyl-(1→6)-O-β-D-glucopyranoside], and “novel substance 32” indicates quercetin 3-O-[3-O″-(E)-p-coumaroyl][α-L-rhamnopyranosyl-(1→6)-O-β-D-glucopyranoside].

T1 sequence (P05067 672-713 limits assumed): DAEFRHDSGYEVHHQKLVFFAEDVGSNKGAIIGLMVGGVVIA

As to `CC1OC(OCC2OC(Oc3c(-c4ccc(O)c(O)c4)oc4cc(O)cc(O)c4c3=O)C(O)C(OC(=O)/C=C/c3ccc(O)cc3)C2O)C(O)C(OC2OC(CO)C(O)C(O)C2O)C1O` [Novel substance 31, quercetin 3-O-[3-O″-(E)-p-coumaroyl][β-D-glucopyranosyl-(1→3)-O-α-L-rhamnopyranosyl-(1→6)-O-β-D-glucopyranoside]], the “Increased RFU (amount of aggregated β-amyloid)” value was found to be 12955 RFU, the “Increased RFU (% of Pos.Cont.)” value is recorded as 88.8% and the “decreased aggregation compared with the positive control” value was 11.2%.
`CC1OC(OCC2OC(Oc3c(-c4ccc(O)c(O)c4)oc4cc(O)cc(O)c4c3=O)C(O)C(OC(=O)/C=C/c3ccc(O)cc3)C2O)C(O)C(O)C1O` [Novel substance 32, quercetin 3-O-[3-O″-(E)-p-coumaroyl][α-L-rhamnopyranosyl-(1→6)-O-β-D-glucopyranoside]]: the “Increased RFU (amount of aggregated β-amyloid)” value came out at 12148 RFU, the “Increased RFU (% of Pos.Cont.)” value came out at 83.2% and the “decreased aggregation compared with the positive control” value was found to be 16.8%.
